Source: PubChem BioAssay AID1963840 (Molecular Pharmacology Branch, DTP, NCI, 2024)

System: 695427-040-R-J1-PDC complex spheroid viability
Assay: Anticancer human tumor 695427-040-R-J1-PDC patient-derived colon adenocarcinoma cell line growth inhibition [POLQ]
Conditions: for IC50: curve of first compound; for viability, T/C: stronger effect = lower value; active = viability on the fitted dose curve at most 10% of control; inactive = the rest
Procedure, shortened: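 Three-cell-type spheroids modelling solid tumor plus stroma served as the readout system; POL inhibitors were tested individually and in combination, concentration ranges set by clinical Cmax where known.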

[1] = second compound 0.0316 µM, first compound 0.0316 µM
[2] = second compound 0.0316 µM, first compound 0.1 µM
[3] = second compound 0.0316 µM, first compound 0.316 µM
[4] = second compound 0.0316 µM, first compound 1 µM
[5] = second compound 0.0316 µM, first compound 3.16 µM
[6] = second compound 0.0316 µM, first compound 10 µM
[7] = second compound 0.1 µM, first compound 0.0316 µM
[8] = second compound 0.1 µM, first compound 0.1 µM
[9] = second compound 0.1 µM, first compound 0.316 µM
[10] = second compound 0.1 µM, first compound 1 µM
[11] = second compound 0.1 µM, first compound 3.16 µM
[12] = second compound 0.1 µM, first compound 10 µM
[13] = second compound 0.316 µM, first compound 0.0316 µM
[14] = second compound 0.316 µM, first compound 0.1 µM
[15] = second compound 0.316 µM, first compound 0.316 µM
[16] = second compound 0.316 µM, first compound 1 µM
[17] = second compound 0.316 µM, first compound 3.16 µM
[18] = second compound 0.316 µM, first compound 10 µM
[19] = second compound 1 µM, first compound 0.0316 µM
[20] = second compound 1 µM, first compound 0.1 µM
[21] = second compound 1 µM, first compound 0.316 µM
[22] = second compound 1 µM, first compound 1 µM
[23] = second compound 1 µM, first compound 3.16 µM
[24] = second compound 1 µM, first compound 10 µM
[25] = second compound 3.16 µM, first compound 0.0316 µM
[26] = second compound 3.16 µM, first compound 0.1 µM
[27] = second compound 3.16 µM, first compound 0.316 µM
[28] = second compound 3.16 µM, first compound 1 µM
[29] = second compound 3.16 µM, first compound 3.16 µM
[30] = second compound 3.16 µM, first compound 10 µM
[31] = second compound 10 µM, first compound 0.0316 µM
[32] = second compound 10 µM, first compound 0.1 µM
[33] = second compound 10 µM, first compound 0.316 µM
[34] = second compound 10 µM, first compound 1 µM
[35] = second compound 10 µM, first compound 3.16 µM
[36] = second compound 10 µM, first compound 10 µM
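Note: spheroids exposed to compounds for seven days.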
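Throughout, for viability, T/C: 100% = DMSO vehicle control viability.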

C#Cc1c(F)ccc2cc(O)cc(-c3ncc4c(N5CC6CCC(C5)N6)nc(OCC56CCCN5CC(F)C6)nc4c3F)c12 (stereo not drawn) + Cc1cccc(N(C)C(=O)C2C(O)CCN2c2nc(C)cc(C(F)(F)F)c2C#N)c1
inactive: viability, T/C [1] 106% | viability, T/C [2] 99.3% | viability, T/C [3] 98% | viability, T/C [4] 104% | viability, T/C [5] 88.3% | viability, T/C [6] 86.9% | viability, T/C [7] 102% | viability, T/C [8] 100% | viability, T/C [9] 90.8% | viability, T/C [10] 96% | viability, T/C [11] 92.1% | viability, T/C [12] 78.8% | viability, T/C [13] 98.3% | viability, T/C [14] 99% | viability, T/C [15] 97.8% | viability, T/C [16] 104% | viability, T/C [17] 90.8% | viability, T/C [18] 80.6% | viability, T/C [19] 98% | viability, T/C [20] 92.4% | viability, T/C [21] 94.3% | viability, T/C [22] 92.1% | viability, T/C [23] 89.2% | viability, T/C [24] 83.2% | viability, T/C [25] 88.5% | viability, T/C [26] 94.3% | viability, T/C [27] 97% | viability, T/C [28] 90.4% | viability, T/C [29] 91% | viability, T/C [30] 76.1% | viability, T/C [31] 92.8% | viability, T/C [32] 84.7% | viability, T/C [33] 85.4% | viability, T/C [34] 84.7% | viability, T/C [35] 73.2% | viability, T/C [36] 61.5%
> 10 µM: IC50 (second compound 0.0316 µM) | IC50 (second compound 0.1 µM) | IC50 (second compound 0.316 µM) | IC50 (second compound 1 µM) | IC50 (second compound 3.16 µM) | IC50 (second compound 10 µM)

C=CC(=O)N1CCN(c2nc(=O)n(-c3c(C)ccnc3C(C)C)c3nc(-c4c(O)cccc4F)c(F)cc23)C(C)C1 (stereo not drawn) + Cc1cccc(N(C)C(=O)C2C(O)CCN2c2nc(C)cc(C(F)(F)F)c2C#N)c1
inactive: viability, T/C [1] 98.8% | viability, T/C [2] 93.9% | viability, T/C [3] 101% | viability, T/C [4] 105% | viability, T/C [5] 107% | viability, T/C [6] 110% | viability, T/C [7] 96.2% | viability, T/C [8] 92.4% | viability, T/C [9] 101% | viability, T/C [10] 108% | viability, T/C [11] 99.9% | viability, T/C [12] 104% | viability, T/C [13] 103% | viability, T/C [14] 103% | viability, T/C [15] 101% | viability, T/C [16] 104% | viability, T/C [17] 101% | viability, T/C [18] 106% | viability, T/C [19] 98.1% | viability, T/C [20] 98.5% | viability, T/C [21] 97.8% | viability, T/C [22] 99.4% | viability, T/C [23] 97.5% | viability, T/C [24] 102% | viability, T/C [25] 97.8% | viability, T/C [26] 84.5% | viability, T/C [27] 97.9% | viability, T/C [28] 93.4% | viability, T/C [29] 103% | viability, T/C [30] 107% | viability, T/C [31] 87.8% | viability, T/C [32] 91.8% | viability, T/C [33] 87.5% | viability, T/C [34] 101% | viability, T/C [35] 102% | viability, T/C [36] 105%
> 10 µM: IC50 (second compound 0.0316 µM) | IC50 (second compound 0.1 µM) | IC50 (second compound 0.316 µM) | IC50 (second compound 1 µM) | IC50 (second compound 3.16 µM) | IC50 (second compound 10 µM)

CCc1cc2c(N3CCc4c(cc(Cn5ccnc5)cc4-c4cn(C)nc4C(F)(F)F)C3=O)ccnc2c(OC)n1 + Cc1cccc(N(C)C(=O)C2C(O)CCN2c2nc(C)cc(C(F)(F)F)c2C#N)c1
> 10 µM: IC50 (second compound 0.0316 µM) | IC50 (second compound 0.1 µM) | IC50 (second compound 0.316 µM) | IC50 (second compound 1 µM) | IC50 (second compound 3.16 µM) | IC50 (second compound 10 µM)
inactive: viability, T/C [1] 97% | viability, T/C [2] 99.7% | viability, T/C [3] 98.2% | viability, T/C [4] 104% | viability, T/C [5] 105% | viability, T/C [6] 92.4% | viability, T/C [7] 110% | viability, T/C [8] 107% | viability, T/C [9] 109% | viability, T/C [10] 103% | viability, T/C [11] 114% | viability, T/C [12] 89.3% | viability, T/C [13] 105% | viability, T/C [14] 109% | viability, T/C [15] 92.8% | viability, T/C [16] 113% | viability, T/C [17] 109% | viability, T/C [18] 81.3% | viability, T/C [19] 103% | viability, T/C [20] 108% | viability, T/C [21] 105% | viability, T/C [22] 103% | viability, T/C [23] 102% | viability, T/C [24] 82.7% | viability, T/C [25] 101% | viability, T/C [26] 94.9% | viability, T/C [27] 95.2% | viability, T/C [28] 103% | viability, T/C [29] 99.8% | viability, T/C [30] 85.5% | viability, T/C [31] 98% | viability, T/C [32] 86.4% | viability, T/C [33] 93.6% | viability, T/C [34] 97.8% | viability, T/C [35] 103% | viability, T/C [36] 83.6%

COc1cc2cc(C(=O)CCC(=O)O)sc2cc1OC + Cc1cccc(N(C)C(=O)C2C(O)CCN2c2nc(C)cc(C(F)(F)F)c2C#N)c1
inactive: viability, T/C [1] 100% | viability, T/C [2] 106% | viability, T/C [3] 96.5% | viability, T/C [4] 99.5% | viability, T/C [5] 105% | viability, T/C [6] 92% | viability, T/C [7] 111% | viability, T/C [8] 97.1% | viability, T/C [9] 98.2% | viability, T/C [10] 95.3% | viability, T/C [11] 111% | viability, T/C [12] 88.3% | viability, T/C [13] 112% | viability, T/C [14] 106% | viability, T/C [15] 106% | viability, T/C [16] 108% | viability, T/C [17] 114% | viability, T/C [18] 100% | viability, T/C [19] 108% | viability, T/C [20] 101% | viability, T/C [21] 108% | viability, T/C [22] 98.9% | viability, T/C [23] 103% | viability, T/C [24] 88.8% | viability, T/C [25] 96.7% | viability, T/C [26] 98.3% | viability, T/C [27] 102% | viability, T/C [28] 101% | viability, T/C [29] 97.9% | viability, T/C [30] 95.4% | viability, T/C [31] 94.3% | viability, T/C [32] 82.2% | viability, T/C [33] 101% | viability, T/C [34] 89.5% | viability, T/C [35] 99.4% | viability, T/C [36] 90.9%
> 10 µM: IC50 (second compound 0.0316 µM) | IC50 (second compound 0.1 µM) | IC50 (second compound 0.316 µM) | IC50 (second compound 1 µM) | IC50 (second compound 3.16 µM) | IC50 (second compound 10 µM)
